According to publication PMC10866072, “Design, synthesis, molecular modelling and biological evaluation of novel 6-amino-5-cyano-2-thiopyrimidine derivatives as potent anticancer agents against leukemia and apoptotic inducers” (Journal of Enzyme Inhibition and Medicinal Chemistry, 2024):

Legend:
NCI-H522 = assay type: cell-based; conditions: Homo sapiens, one dose 10^-5 M, 48 h
HCT-116 = assay type: cell-based; conditions: Homo sapiens, one dose 10^-5 M, 48 h, read-out: % growth
PC-3 = assay type: cell-based; conditions: Homo sapiens, one dose 10^-5 M, 48 h
MALME-3M = assay type: cell-based; conditions: Homo sapiens, one dose 10^-5 M, 48 h
SNB-19 = assay type: cell-based; conditions: Homo sapiens, one dose 10^-5 M, 48 h, read-out: % growth
MDA-MB-435 = assay type: cell-based; conditions: Homo sapiens, one dose 10^-5 M, 48 h, read-out: % growth
NCI-H23 = assay type: cell-based; conditions: Homo sapiens, one dose 10^-5 M, 48 h, read-out: % growth
OVCAR-3 = assay type: cell-based; conditions: Homo sapiens, one dose 10^-5 M, 48 h
BT-549 = assay type: cell-based; conditions: Homo sapiens, one dose 10^-5 M, 48 h
A549/ATCC = assay type: cell-based; conditions: Homo sapiens, one dose 10^-5 M, 48 h
SF-295 = assay type: cell-based; conditions: Homo sapiens, one dose 10^-5 M, 48 h
RXF 393 = assay type: cell-based; conditions: Homo sapiens, RXF 393, 48 h, one dose 10^-5 M, 48 h, read-out: % growth
HL-60(TB) = assay type: cell-based; conditions: Homo sapiens, one dose 10^-5 M, 48 h
CAKI-1 = assay type: cell-based; conditions: Homo sapiens, CAKI-1, 48 h, one dose 10^-5 M, 48 h
SK-MEL-28 = assay type: cell-based; conditions: Homo sapiens, one dose 10^-5 M, 48 h
HOP-62 = assay type: cell-based; conditions: Homo sapiens, one dose 10^-5 M, 48 h
786-0 = assay type: cell-based; conditions: Homo sapiens, one dose 10^-5 M, 48 h
SK-MEL-2 = assay type: cell-based; conditions: Homo sapiens, one dose 10^-5 M, 48 h
KM12 = assay type: cell-based; conditions: Homo sapiens, one dose 10^-5 M, 48 h
K-562 = assay type: cell-based; conditions: Homo sapiens, K562, one dose 10^-5 M, 48 h
MDA-MB-468 = assay type: cell-based; conditions: Homo sapiens, one dose 10^-5 M, 48 h
EKVX = assay type: cell-based; conditions: Homo sapiens, one dose 10^-5 M, 48 h
HOP-92 = assay type: cell-based; conditions: Homo sapiens, one dose 10^-5 M, 48 h
HCT-15 = assay type: cell-based; conditions: Homo sapiens, one dose 10^-5 M, 48 h, read-out: % growth
UO-31 = assay type: cell-based; conditions: Homo sapiens, UO-31, 48 h, one dose 10^-5 M, 48 h
[1] = tested on: full NCI 60 cell lines panel; conditions: for activity at 10 µM: Homo sapiens, 60 cell, 48 h, read-out: Mean % growth
MCF7 = assay type: cell-based; conditions: Homo sapiens, one dose 10^-5 M, 48 h, read-out: % growth
SK-OV-3 = assay type: cell-based; conditions: Homo sapiens, one dose 10^-5 M, 48 h
M14 = assay type: cell-based; conditions: Homo sapiens, one dose 10^-5 M, 48 h
MOLT-4 = assay type: cell-based; conditions: Homo sapiens, one dose 10^-5 M, 48 h, read-out: % growth
SF-539 = assay type: cell-based; conditions: Homo sapiens, one dose 10^-5 M, 48 h
OVCAR-5 = assay type: cell-based; conditions: Homo sapiens, one dose 10^-5 M, 48 h
HT29 = assay type: cell-based; conditions: Homo sapiens, HT-29, one dose 10^-5 M, 48 h
NCI/ADR-RES = assay type: cell-based; conditions: Homo sapiens, one dose 10^-5 M, 48 h
NCI-H460 = assay type: cell-based; conditions: Homo sapiens, one dose 10^-5 M, 48 h, read-out: % growth
U251 = assay type: cell-based; conditions: Homo sapiens, U-251, one dose 10^-5 M, 48 h
SW-620 = assay type: cell-based; conditions: Homo sapiens, one dose 10^-5 M, 48 h
T-47D = assay type: cell-based; conditions: Homo sapiens, T47D, one dose 10^-5 M, 48 h, read-out: % growth
HCC-2998 = assay type: cell-based; conditions: Homo sapiens, one dose 10^-5 M, 48 h
LOX IMVI = assay type: cell-based; conditions: Homo sapiens, one dose 10^-5 M, 48 h, read-out: % growth
RPMI-8226 = assay type: cell-based; conditions: Homo sapiens, one dose 10^-5 M, 48 h
HS 578T = assay type: cell-based; conditions: Homo sapiens; one dose 10^-5 M, 48 h; HS 578T; read-out: % growth
SF-268 = assay type: cell-based; conditions: Homo sapiens, one dose 10^-5 M, 48 h, read-out: % growth
IGROV1 = assay type: cell-based; conditions: Homo sapiens, IGROV-1, one dose 10^-5 M, 48 h, read-out: % growth
A498 = assay type: cell-based; conditions: Homo sapiens, one dose 10^-5 M, 48 h
TK-10 = assay type: cell-based; conditions: Homo sapiens, one dose 10^-5 M, 48 h
OVCAR-8 = assay type: cell-based; conditions: Homo sapiens, one dose 10^-5 M, 48 h
UACC-62 = assay type: cell-based; conditions: Homo sapiens, one dose 10^-5 M, 48 h
UACC-257 = assay type: cell-based; conditions: Homo sapiens, one dose 10^-5 M, 48 h
SR = assay type: cell-based; conditions: Homo sapiens, one dose 10^-5 M, 48 h
DU-145 = assay type: cell-based; conditions: Homo sapiens, one dose 10^-5 M, 48 h
CCRF-CEM = assay type: cell-based; conditions: Homo sapiens, one dose 10^-5 M, 48 h
MDA-MB-231/ATCC = assay type: cell-based; conditions: Homo sapiens, one dose 10^-5 M, 48 h
NCI-H226 = assay type: cell-based; conditions: Homo sapiens, one dose 10^-5 M, 48 h
SK-MEL-5 = assay type: cell-based; conditions: Homo sapiens, one dose 10^-5 M, 48 h, read-out: % growth
COLO 205 = assay type: cell-based; conditions: Homo sapiens, one dose 10^-5 M, 48 h
SN12C = assay type: cell-based, human; conditions: Homo sapiens, one dose 10^-5 M, 48 h
OVCAR-4 = assay type: cell-based; conditions: Homo sapiens, one dose 10^-5 M, 48 h
ACHN = assay type: cell-based; conditions: Homo sapiens, one dose 10^-5 M, 48 h

Work on CN(C)c1ccc(-c2nc(S)nc(N)c2-c2ncn[nH]2)cc1 [Compound 5a, 4-Aamino-6-[4-(dimethylamino)phenyl]-5-(1H-1,2,4-triazol-5-yl)pyrimidine-2-thiol] yielded a % growth at 10 µM (NCI-H522) of 101%, an activity at 10 µM (HCT-116) of 102% and a percent cell growth at 10 µM (PC-3) of 102%. For the same compound, the % growth at 10 µM (MALME-3M) was 96.7%, the activity at 10 µM (SNB-19) was 102% and the activity at 10 µM (MDA-MB-435) was 113%. The activity at 10 µM (NCI-H23) was 108%, the % growth at 10 µM (OVCAR-3) was 111% and the % cell growth at 10 µM (BT-549) was 98.1%. The % growth at 10 µM (A549/ATCC) was 108%, the % cell growth at 10 µM (SF-295) was 104% and the activity at 10 µM (RXF 393) was 113%. For the same compound, the % growth at 10 µM (HL-60(TB)) was 84.4%, the % growth at 10 µM (CAKI-1) was 89.7% and the % cell growth at 10 µM (SK-MEL-28) was 119%. The % growth at 10 µM (HOP-62) was 103%, the % growth at 10 µM (786-0) was 96.3% and the % growth at 10 µM (SK-MEL-2) was 116%. The % growth at 10 µM (KM12) was 105%, the % growth at 10 µM (K-562) was 89.8% and the percent cell growth at 10 µM (MDA-MB-468) was 110%. For the same compound, the % cell growth at 10 µM (EKVX) was 121%, the % growth at 10 µM (HOP-92) was 100% and the activity at 10 µM (HCT-15) was 116%. The % cell growth at 10 µM (UO-31) was 93.9%, the activity at 10 µM [1] was 107% and the “activity on all 60 cancer cell lines tested (in words)” value ([1]; one dose) was “weak activity”. It also gave an activity at 10 µM (MCF7) of 96.6%, a % growth at 10 µM (SK-OV-3) of 103% and a % growth at 10 µM (M14) of 105%. It also gave an activity at 10 µM (MOLT-4) of 100%, a % growth at 10 µM (SF-539) of 108% and a percent cell growth at 10 µM (OVCAR-5) of 120%. The % growth at 10 µM (HT29) was 111%, the cell growth percent at 10 µM (NCI/ADR-RES) was 115% and the activity at 10 µM (NCI-H460) was 111%. It also gave a % growth at 10 µM (U251) of 111%, a % growth at 10 µM (SW-620) of 106% and an activity at 10 µM (T-47D) of 109%. For the same compound, the % growth at 10 µM (HCC-2998) was 112%, the activity at 10 µM (LOX IMVI) was 109% and the % growth at 10 µM (RPMI-8226) was 109%. For the same compound, the activity at 10 µM (HS 578T) was 113%, the activity at 10 µM (SF-268) was 107% and the activity at 10 µM (IGROV1) was 109%. For the same compound, the % growth at 10 µM (A498) was 131%, the % cell growth at 10 µM (TK-10) was 117% and the % growth of cells at 10 µM (OVCAR-8) was 113%. The % growth at 10 µM (UACC-62) was 102%, the percent cell growth at 10 µM (UACC-257) was 113% and the percent cell growth at 10 µM (SR) was 85.7%. For the same compound, the % growth at 10 µM (DU-145) was 115%, the % cell growth at 10 µM (CCRF-CEM) was 103% and the % growth at 10 µM (MDA-MB-231/ATCC) was 107%. It also gave a % growth at 10 µM (NCI-H226) of 110%, an activity at 10 µM (SK-MEL-5) of 108% and a % growth at 10 µM (COLO 205) of 116%. For the same compound, the % growth at 10 µM (SN12C) was 106%, the % growth at 10 µM (OVCAR-4) was 115% and the % growth at 10 µM (ACHN) was 119%.

Nc1nc(S)nc(-c2ccc(Cl)cc2Cl)c1-c1ncn[nH]1 [Compound 5c, 4-Amino-6–(2,4-dichlorophenyl)-5-(1H-1,2,4-triazol-5-yl)pyrimidine-2-thiol] showed a % growth at 10 µM (NCI-H522) of 88.8%, an activity at 10 µM (HCT-116) of 97.8% and a percent cell growth at 10 µM (PC-3) of 95.8%. The % growth at 10 µM (MALME-3M) was 98.2%, the activity at 10 µM (SNB-19) was 97.1% and the activity at 10 µM (MDA-MB-435) was 105%. For the same compound, the activity at 10 µM (NCI-H23) was 105%, the % growth at 10 µM (OVCAR-3) was 109% and the % cell growth at 10 µM (BT-549) was 97.3%. For the same compound, the % growth at 10 µM (A549/ATCC) was 102%, the % cell growth at 10 µM (SF-295) was 100% and the activity at 10 µM (RXF 393) was 110%. It also gave a % growth at 10 µM (HL-60(TB)) of 70.9%, a % growth at 10 µM (CAKI-1) of 90.8% and a % cell growth at 10 µM (SK-MEL-28) of 115%. It also gave a % growth at 10 µM (HOP-62) of 93.9%, a % growth at 10 µM (786-0) of 90.7% and a % growth at 10 µM (SK-MEL-2) of 104%. For the same compound, the % growth at 10 µM (KM12) was 103%, the % growth at 10 µM (K-562) was 98% and the percent cell growth at 10 µM (MDA-MB-468) was 104%. It also gave a % cell growth at 10 µM (EKVX) of 50%, a % growth at 10 µM (HOP-92) of 106% and an activity at 10 µM (HCT-15) of 102%. The % cell growth at 10 µM (UO-31) was 89.9%, the activity at 10 µM [1] was 100% and the activity at 10 µM (MCF7) was 94.1%. It also gave a % growth at 10 µM (SK-OV-3) of 94.2%, a % growth at 10 µM (M14) of 98.7% and an activity at 10 µM (MOLT-4) of 91.4%. For the same compound, the % growth at 10 µM (SF-539) was 101%, the percent cell growth at 10 µM (OVCAR-5) was 107% and the % growth at 10 µM (HT29) was 102%. It also gave a cell growth percent at 10 µM (NCI/ADR-RES) of 106%, an activity at 10 µM (NCI-H460) of 108% and a % growth at 10 µM (U251) of 105%. It also gave a % growth at 10 µM (SW-620) of 102%, an activity at 10 µM (T-47D) of 106% and a % growth at 10 µM (HCC-2998) of 105%. For the same compound, the activity at 10 µM (LOX IMVI) was 104%, the % growth at 10 µM (RPMI-8226) was 103% and the activity at 10 µM (HS 578T) was 98.6%. The activity at 10 µM (SF-268) was 101%, the activity at 10 µM (IGROV1) was 102% and the % growth at 10 µM (A498) was 120%. For the same compound, the % cell growth at 10 µM (TK-10) was 114%, the % growth of cells at 10 µM (OVCAR-8) was 103% and the % growth at 10 µM (UACC-62) was 95.3%. It also gave a percent cell growth at 10 µM (UACC-257) of 112%, a percent cell growth at 10 µM (SR) of 83.2% and a % growth at 10 µM (DU-145) of 112%. It also gave a % cell growth at 10 µM (CCRF-CEM) of 92.7%, a % growth at 10 µM (MDA-MB-231/ATCC) of 104% and a % growth at 10 µM (NCI-H226) of 110%. The activity at 10 µM (SK-MEL-5) was 94.8%, the % growth at 10 µM (COLO 205) was 104% and the % growth at 10 µM (SN12C) was 107%. It also gave a % growth at 10 µM (OVCAR-4) of 105% and a % growth at 10 µM (ACHN) of 109%.
